Reference: patent US20150217046A1, “DOSING REGIMENS FOR SUBCUTANEOUSLY INFUSIBLE ACIDIC COMPOSITIONS” (SynAgile Corporation, priority 2012, published 2015)
Read-outs that look alike come from different tables or passages of the source.

Key:
[1] = initially about pH 3.7±0.2
Experimental: Such a pH can be maintained for example through co-dissolving citric acid and/or a citrate salt, e.g., monosodium citrate, for example to about 10-50 mM concentration. For infusion it is desired, in order to avoid acid-caused pain, to raise the pH at least to pH 2.4±0.3, for example to 2.4±0.3, 2.6±0.3, 2.8±0.3, 3.1±0.3, 3.4±0.3, 3.7±0.3 or to 4.0±0.3, for example by adding citric acid, monosodium citrate, or trisodium citrate.

[2] = 0.44 M LDEE.HCl, pH 3.7±0.1, 4.0° C., 39 weeks, 3 samples
Experimental: The LD concentration was monitored in 3 samples of 0.44 M LDEE.HCl at pH 3.7±0.1 and 4.0° C.

[3] = 25° C., pH 7 or pH 5; cited from earlier work
[4] = Rate of hydrolysis of LD esters in solution; format: physicochemical; conditions: about pH 4.5, about 23° C.
Experimental: At a particular temperature and pH, the LDEs formed of LD and of different alcohols are hydrolyzed prior to their infusion at different rates. […] The rate of hydrolysis of LDE salts also depends on the anion, i.e., on the acid forming the LDE salt. LDE is hydrolyzed more rapidly when carboxylate anions and/or carboxylic acids replace the chloride anion or HCl. The rate of hydrolysis of the salt formed of LDEE and acetic acid can be about 3 times faster at about pH 4.5 at about 23° C. than that of LDEE.HCl, the salt formed of LDEE and HCl. The rate of hydrolysis at a particular pH and temperature can therefore depend on the buffering agent, e.g., citric acid and/or citrate anions, becoming faster when their concentration is elevated. Typically, the concentration of the buffering ions, i.e., the combined concentrations of citrates and citric acid, is between about 5 mM and 100 mM, for example between about 10 mM and 50 mM. The rate of hydrolysis can increase, for example, when the buffering citric acid-citrate concentration is increased.
In aqueous LDE salt pharmaceutical compositions, the hydrolysis rates generally decrease as the pH decreases, and the shelf life of the LDE salt consequently increases, unless the pH is about 1.7±0.5 or less. […] In acidic pharmaceutical compositions the amines of the LDEs are protonated, making the LDEs cations. […] The rates of hydrolysis generally increase with temperature, and may at least about double or about triple for each 10° C. increase, correspondingly decreasing upon cooling.

[5] = about 0.44 M LDEE.HCl infusible composition
[6] = about 1.0 M LDEE.HCl infusible composition
[7] = first infusion, continuous over 16 hours, 0.163 mL/hour, end of infusion

CCOC(=O)[C@@H](N)Cc1ccc(O)c(O)c1.Cl [LDEE.HCl, hydrochloride salt of the ethyl ester of L-DOPA]
Estimated operational life at 30° C. [1, 5]: >3 days | Estimated operational life at 37° C. [1, 5]: >2 days | Estimated storage life at 4° C. [1, 5]: >1.5 years | Estimated storage life at 25° C. [1, 5]: >1 months | Estimated operational life at 30° C. [1, 6]: >2 days | Estimated operational life at 37° C. [1, 6]: >1 days | Estimated storage life at 4° C. [1, 6]: >6 months | Estimated storage life at 25° C. [1, 6]: >2 weeks | concentration of LD after refrigerated storage [2]: less than 2 mg/mL | pain during infusion (0.48 M LDEE.HCl pH 3.5, 1.25 millimoles per infusion, all three infusions): no pain at any time during the infusions | diameter of area with redder skin [7]: 3 cm | diameter of slightly protruding hard swelling [7]: 2.5 cm | diameter of palpable induration (first infusion, continuous over 16 hours, after 21 hours): 1 cm | diameter of induration (first infusion, continuous over 16 hours, after 2 days): 0.5 cm | skin symptoms (second infusion, intermittent over 10.5 hours, 0.35 mL/hour, with oral carbidopa, end of infusion): no skin symptoms at the end of the infusion | skin symptoms (second infusion, intermittent over 10.5 hours, with oral carbidopa, after 11 hours): a barely perceptible very lightly pink 2.5 cm diameter zone and a very mild soft palpable swelling | skin symptoms (second infusion, intermittent over 10.5 hours, with oral carbidopa, after 36 hours): only a barely palpable 3 cm long 1 cm wide soft horizontal induration | skin symptoms (third infusion, intermittent over 10.8 hours, 0.35 mL/hour, without oral carbidopa, end of infusion): no significant skin symptoms at the end of the infusion | skin symptoms (third infusion, intermittent, without oral carbidopa, four hours after end of infusion): very slightly more pink over a 2.5 cm diameter zone and there was a small (2 cm×1 cm) barely palpable induration | skin symptoms (third infusion, intermittent, without oral carbidopa, fourteen hours after end of infusion): the site could be recognized by its pink color

N[C@@H](Cc1ccc(O)c(O)c1)C(=O)O [levodopa]
solubility [3]: ≤ 5 g per liter

CC(=O)O.CCOC(=O)C(N)Cc1ccc(O)c(O)c1 (stereo not shown) [salt formed of LDEE and acetic acid]
rate of hydrolysis relative to LDEE.HCl [4]: about 3 times
